Results published in US20140309295A1, “ANTIEPILEPTIC, HYPOCHOLESTEROLEMIC AND NEUROPROTECTIVE COMPOUND” (NEURON BIOPHARMA, S.A., priority 2009, published 2014).

Columns and labels:
[1] = test system: Candida albicans CECT 1002; assay: Fungicidal activity bioassay (growth inhibition halos); type: cell-based; conditions: β-hydroxy acid form
Experimental: The fungicidal activity of NST0037 was analyzed by means of bioassay against Candida albicans. […] The assayed concentrations were the following: 2, 1.5, 1, 0.5, 0.25, 0.125, 0.06, 0.025 and 0.01 mM. Plates of MA medium (containing per liter: 20 g malt extract, 20 g glucose, 1 g mycopeptone and 10 g agar) previously inoculated with a culture of Candida albicans CECT (Spanish Type-Culture Collection) 1002 were prepared. With aid of a die (6 mm in diameter) various wells were prepared in which 40 μL of the previous solutions were deposited. The study was performed in triplicate and triplicates for each compound and concentration were included in each plate. The plates were kept at 4° C. for 1 hour and were subsequently incubated at 28° C. overnight. The presence of antifungal activity was determined by means of the formation of C. albicans growth inhibition halos.

[2] = test system: FVB/NHan mice inoculated with kainate (KA); assay: Mortality caused by kainate in mice (Kaplan-Meier); type: in vivo; conditions: 50 mg/kg i.p.
Experimental: All the animals included for the experimental process were 12-week old males of the FVB/NHan strain. The experiments were conducted strictly following the Guidance on the Operation of Animals (Scientific Procedures, Act. 1986). The animals had their respective quarantine period and were treated with maximum precaution to minimize possible contaminations for inoculations and handling. […]
The deaths were recorded during the entire time the assay lasted, and the results are shown in FIG. 8 by means of Kaplan-Meier survival curves. […]

[3] = test system: SK-N-MC (human neuroblastoma) line; assay: Total cholesterol levels in neuronal cell line; type: cell-based; conditions: acid compounds, 20 hours, absence of FBS
Experimental: To carry out this assay, the compounds were activated with NaOH until the lactone form was completely opened.
Both the Hep G2 (human hepatocarcinoma) line and the SK-N-MC (human neuroblastoma) line were obtained from the American Type Culture Collection (ATCC no. HB-8065 and HTB-10 respectively). In all cases strict rules of sterility were followed and the manipulation was performed in class II biological safety cabinets following European standard EN 12469. The cells maintained in passage were seeded in 96-well plates in MEM supplemented with 10% FBS, 2 mM L-glutamine, 1 mM sodium pyruvate, 0.1 mM non-essential amino acids and 0.05 mg/mL gentamicin. In the case of HepG2, 4×10^4 cells/well were seeded and in the case of SK-N-MC 5×10^4 cells/well were seeded. After 24 hours had elapsed from the seeding, the cells were deprived of FBS for 8 hours. The cells were then incubated with the treatments at various concentrations for 20 hours. After the incubation period, the cells were washed with PBS and lysed with a phosphate buffer with 0.5% Triton X-100. […]
The total cholesterol was quantified by means of enzymatic and fluorometric techniques. […] The fluorescence intensity was determined at 530 nm of excitation and 580 nm of emission by means of a fluorometer. The results were normalized by protein, which was determined by means of the BCA technique.

CCC(CC)C(=O)O[C@H]1C[C@@H](C)C=C2C=C[C@H](C)[C@H](CC[C@@H]3C[C@@H](O)CC(=O)O3)[C@H]21 [NST0037, (1S,2S,6R,8S,8aR)-1,2,6,7,8,8a-hexahydro-3,7-dimethyl-8-[2-[(2R,4R)-tetrahydro-4-hydroxy-6-oxo-2H-pyran-2-yl]ethyl]-1-naphthalenyl-2-ethyl-butyrate]
inhibition halos at lower concentrations ([1]; 0.06 and 0.025 mM): the only one capable of causing inhibition halos | antifungal activity (inhibition halos) ([1]; 2 to 0.01 mM): higher antifungal activity than the statins included in the assay | mortality caused by KA (survival) ([2]; NST0037+KA+NST0037 regimen): protected against death | survival of the animals vs PBS+KA+PBS ([2]; PBS+KA+NST0037 regimen): increases | reduction of total cholesterol levels [3]: reductions of cholesterol with both compounds were similar
